The source of these data is US7666619B2, “Compounds and methods for regulating bacterial growth and pathogenesis” (Princeton University, priority 2000, dated 2010).

Converted amounts (≈) assume the structure as drawn. Where two headings read alike, the source gives them in different places.

Test [1] deals with V. harveyi reporter strain BB170 (Sensor 1−, Sensor 2+). In words: V. harveyi luminescence assay, test strain BB170 (AI-2 bioassay). The format is cell-based, Vibrio harveyi. The following applies: for signaling activity (induction of luminescence): control experiments, reporter strain BB170. Here is the method:
FIG. 16 panels C and D show the effect of the same compounds on control strain JAF78. Strain BB170 synthesizes AI-2 starting at 4.5 hours into the assay. Light produced at the start of the assays is from AI-2 carried over from cells diluted from stationary phase. Strain JAF78 is a mutant strain in which light production is “locked on” and is unaffected by the presence or absence of autoinducer. Increase in light over the time course reflects increase in cell population density.
Density-dependent Bioluminescence Assay. […] The cell density was measured by diluting the same aliquots of cells used for measuring luminescence, spreading the dilutions onto solid LM medium, incubating the plates overnight at 30° C., and counting the resulting colonies the following day. Relative Light Units are (counts min^−1 ml^−1×10^3)/(colony forming units ml^−1). Cell-free culture supernatants from V. harveyi or S. typhimurium strains were added to a final concentration of 10% (v/v) at the time of the first measurement. In control experiments, 10% (v/v) of AB medium, LB medium or LB medium containing 0.5% glucose was added instead of cell-free culture fluids.
Assay for Production of Signaling Molecules. Cell-free culture fluids from E. coli, S. typhimurium and V. harveyi strains were tested for the presence of signaling substances that could induce luminescence in the V. harveyi reporter strain BB170 or BB886. In the assays, 10 μl of cell-free culture fluids from E. coli AB1157, E. coli DH5α, and S. typhimurium LT2 strains grown and harvested as described above were added to 96-well microtiter dishes. The V. harveyi reporter strain BB170 or BB886 was grown for 16 h at 30° C. with aeration in AB medium, diluted 1:5000 into fresh AB medium, and 90 μl of the diluted cells were added to the wells containing the E. coli and S. typhimurium cell-free culture fluids. Positive control wells contained 10 μl of cell-free culture fluid from strain V. harveyi BB152 (Autoinducer-1^−, Autoinducer-2^+) or V. harveyi BB120 (Autoinducer-1^+, Autoinducer-2^+). Negative control wells contained 10 μl of sterile growth medium. The microtiter dishes were shaken in a rotary shaker at 175 rpm at 30° C.
Bioluminescence Assay. […] Cell-free culture fluids from V. harveyi, E. coli, or S. typhimurium strains to be tested for AI-2 activity were prepared as described above, and assayed at 10% (v/v). AI-2 activity is reported as the fold-induction of the reporter strain over background, or as the percent of the activity obtained from V. harveyi BB120 (wild type) cell-free culture fluid.

Test [2] has as its system V. harveyi strains MM32, BB120, BB170. The test is described as follows: Microtiter crystal violet biofilm formation assay. The format is cell-based, Vibrio harveyi. The following applies: null mutant (AI-1−/AI-2−) V. harveyi. On the procedure:
Biofilm formation was measured using a microtiter-based assay. Free-swimming (planktonic) bacteria were cultured in AB or LB media supplemented with glucose in 96 well microtiter dishes. Biofilms typically formed along the walls of the wells at the interface of the liquid and air phase. At the end of the incubation, aliquots of a crystal violet solution (stock 0.1%) were added to the wells to stain both the adherent and the non-adherent cells. The wells were then washed with deionized water to remove non-adherent cells, and the bound crystal violet solubilized with 200 microliters of water. Absorbance reading at 600 nm (A600) were used to quantitate the amount of crystal violet dye that had adhered to the biofilms. When indicated, synthetic AI-2 was added to the wells at the beginning of the cultures.
Various amounts of synthetic AI-2 were added to the initial free-swimming bacterial cultures in LB media supplemented with glucose, and biofilm formation measured at the end of the incubation.

For test [3], the system named is sensor-1+, sensor-2− mutant (BB886). The test is described as follows: Microtiter luminescence assay with AI-1 and strain BB886. The format is cell-based, Vibrio harveyi. As to conditions: non self-stimulating strain BB886.
Test [4] concerns Streptococcus pyogenes ATCC 19615. The test is described as follows: Cell growth monitored by absorbance at 600 nm. The format is cell-based. As to conditions: 2.4 μg/ml or 2.5 mg/ml. On the procedure:
Streptococcus pyogenes ATCC 19615 was grown in the presence of either 2.4 μg/ml or 2.5 mg/ml of compound QXP-035. Cell growth was monitored by taking periodic measurements of absorbance at 600 nm.

Test [5] has the same test system. The test is described as follows: Antibiotic susceptibility assay (NCCLS broth microdilution). The test is classed as cell-based. The following applies: for MIC: Streptococcus pyogenes, ATCC19615. Here is the method:
(§1) Antimicrobial susceptibility testing was conducted according to the National Committee for Clinical Laboratory Standards (NCCLS) reference method “Broth Dilution Procedure (Microdilution)” published January 1977 (UPDATE VERSION). The method yields a minimum inhibitory dose (MIC) required for complete inhibition of bacterial growth. MICs were determined using a dilution series of antibiotic, in which all of the wells contained a constant concentration of the inhibitor compound was maintained. In addition, before the instant susceptibility tests were performed, the inhibitor compounds were tested in the appropriate inhibitor screens (See, for example, FIG. 32 for the AI-2 inhibitor 2-ethyl-4-hydroxy-5-methyl-3(2H)-furanone). […] Experiments were conducted in 96 well microtiter plates using a final volume of 0.1 ml/well. Assays were conducted using either Mueller-Hinton broth, Todd-Hewitt broth, or Nutrient Broth (Difco). The bacterial innoculum was prepared from a log phase overnight culture of Streptococcus pyogenes ATCC 19615 or Staphylococcus aureus ATCC 25923. Turbidity of the cultures was adjusted with saline to 0.05 McFarland standard (10^7 CFU/ml), and 5 microliters of this innoculum was added to each well. The inhibitor compounds were prepared by dissolving a stock solution in water. Working stocks of quorum inhibitors compounds were made by diluting the stock solutions with bacterial broth. Sodium salts of the antibiotics were used in these experiments. A stock solution (10 mg/ml) was prepared as stipulated by the manufacturer by dissolving a weighed amount of antibiotic in water or DMSO. All antibiotics were added in two-fold serial dilutions to a series of wells to yield final concentrations ranging from 100 μg/ml to 0.1 μg/ml. The single exception was sulfisoxazole where the range of final doses ranged from 300 μg/ml to 2.5 μg/ml. Bacterial broth was used as the diluent. The range of antibiotic concentrations used were chosen to be at and below the MIC for the antibiotic alone. Cultures were sealed and incubated for 20 hours at 37° C. MIC values were determined by spectrophotometric measurements of absorbance at 600 nm. […] Fold-changes in MIC concentration were determined by comparing the MIC for antibiotic and quorum inhibitor compounds with the MIC measured using antibiotic alone.

Test [6] has as its system MM32 indicator strain (LuxS−, LuxN−) of V. harveyi. In words: MM32 bioluminescence assay. The following applies: autoinducer-2 25 μg/ml, QXP-048 25 μg/ml. The format is cell-based, Vibrio harveyi. On the procedure:
The MM32 indicator strain (LuxS−, LuxN−) of V. harveyi was incubated with various doses of AI-2 and the bioluminescence signal measured at various time points during a 6-hour incubation.
Exogenous synthetic autoinducer-2 was added at the outset of the assay at a final concentration of 25 μg/ml. QXP-048 was added at the outset of the assay at a final concentration of 25 μg/ml. […] Exogeneous synthetic autoinducer-2 was added at the outset of the assay to a final concentration of 25 μg/ml. QXP-048 was added at the outset of the assay at a final concentration of 25 μg/ml.
The invention provides a luxN− and luxS− strain of V. harveyi, designated MM32, for identifying inhibitors of the quorum-sensing pathway. […] Further, since MM32 cannot produce AI-2, addition of exogenous AI-2 or its analogs allows rapid identification of inhibitors of AI-2.

For test [7], the system named is Staphylococcus aureus ATCC 25923. The test is described as follows: Antibiotic susceptibility assay (NCCLS broth microdilution). The format is cell-based. As to conditions: with 2-ethyl-4-hydroxy-5-methyl-3(2H)-furanone at 25 μg/ml. Here is the method:
as §1

The test system of a further test is AI-2. In words: Inhibition of AI-2 initiated activation of a biochemical pathway. The text has this: It is an object of the invention to provide compounds and methods for regulating the activity of autoinducer-2 receptors such as LuxP or LuxQ. Compounds of the invention include those that interact with LuxP or LuxQ. Specifically, the invention provides a method for the regulation of LuxP or LuxQ protein resulting in the regulation of bacterial cell growth or the regulation of bacterial pathogenicity by regulating the expression of a factor associated with bacterial virulence. The method of the invention envisions contacting LuxP or LuxQ with pentenomycin, or derivatives thereof, such that LuxP or LuxQ activity is regulated. Pentenomycin has previously been identified as having antibiotic activity. […] The chemical structure of pentenomycin, and derivatives thereof (see below), is/are similar to that of the structure of autoinducer-2 as identified in the present study.

As for `O=C(O)CCC(=O)C(=O)O` [-ketoglutarate], the “signaling activity (induction of luminescence)” value (from here on “signaling activity”) in test [1] is reported as “lacked activity”.

Consider `C[C@@H](O)CC(=O)N[C@H]1CCOC1=O` [AI-1, N-(3-hydroxybutanoyl)-L-homoserine lactone, reference compound], for which the “biofilm production after addition to the medium” value in test [2] is “allows (AI-1−/AI-2−) V. harveyi to produce biofilm”. In addition, in test [3], the “lowest concentration to which the assay was sensitive” value is reported as 100 nM.

Take `OC[C@H]1OC(O)[C@H](O)[C@@H](O)[C@@H]1O` (some centres unmarked) [Glucose]: the “signaling activity” value in test [1] is listed as “lacked activity”.

In the case of `CCC1OC(C)=C(O)C1=O` (centres unmarked) [QXP-035, 2-ethyl-4-hydroxy-5-methyl-3(2H)-furanone], in test [4], the “effect on cell growth” value is listed as “did not inhibit cell growth”. Further, the MIC in test [5] (compound alone, read-out: MIC) is above 100 µg/mL. The “effect on AI-2-dependent bioluminescence” value in test [1] (BB170, various amounts, monitored over time) is listed as “inhibition of bioluminescence”.

Consider `COC1(c2ccccc2)OC=C(c2ccccc2)C1=O` (centres unmarked) [QXP-048, 2-methoxy-2,4-diphenyl-3(2H)furanone], for which the “effect on signal from exogenous synthetic autoinducer-2” value in test [6] is reported as “inhibitory capability”.

As for `CC(=O)O` [acetate], in test [1], the “signaling activity” value was “lacked activity”.

As for `CC1(C)S[C@@H]2[C@H](NC(=O)[C@H](N)c3ccccc3)C(=O)N2[C@H]1C(=O)O` [ampicillin], the “MIC of antibiotic combined with quorum inhibitor” value (from here on “MIC … with quorum inhibitor”) in test [7] is 0.4 µg/mL.

On to `N[C@H]1CCOC1=O` [homoserine lactone], for which, in test [1], the “signaling activity” value is on record as “lacked activity”.

With `O=C1C=C[C@H](O)[C@@]1(O)CO` [pentenomycin], in the test with AI-2, the “effect on AI-2 initiated activation of a biochemical pathway” value is listed as “acts as an inhibitor”.

In the case of `Cc1noc(NS(=O)(=O)c2ccc(N)cc2)c1C` [sulfisoxazole], the “synergy in combination with 2-ethyl-4-hydroxy-5-methyl-3(2H)-furanone” value in test [5] was “marked synergies”. Besides, the MIC in test [5] (compound alone, read-out: MIC) was around 300 µg/mL (≈ 1120 µM). Also, in test [5] (with 2-ethyl-4-hydroxy-5-methyl-3(2H)-furanone at 100 micrograms per milliliter), the “MIC … with quorum inhibitor” value is listed as “approximately 100 μg/ml”.

Turning to `CN[C@H](CC(C)C)C(=O)N[C@H]1C(=O)N[C@@H](CC(N)=O)C(=O)N[C@H]2C(=O)N[C@H]3C(=O)N[C@H](C(=O)N[C@H](C(=O)O)c4cc(O)cc(O)c4-c4cc3ccc4O)[C@H](O)c3ccc(c(Cl)c3)Oc3cc2cc(c3O[C@@H]2O[C@H](CO)[C@@H](O)[C@H](O)[C@H]2O[C@H]2C[C@](C)(N)[C@H](O)[C@H](C)O2)Oc2ccc(cc2Cl)[C@H]1O` [vancomycin], in test [5], the “synergy in combination with 2-ethyl-4-hydroxy-5-methyl-3(2H)-furanone” value is given as “marked synergies”. For the same compound, the MIC in test [5] was around 100 µg/mL (≈ 69 µM). Also, the “MIC … with quorum inhibitor” value in test [5] (with 2-ethyl-4-hydroxy-5-methyl-3(2H)-furanone at 5 μg/ml, compared with vancomycin alone) was “approximately the same MIC”; in test [5] (with 2-ethyl-4-hydroxy-5-methyl-3(2H)-furanone at 12.5 μg/ml), “approximately 1.6 micrograms/milliliter”; in test [5] (with 2-ethyl-4-hydroxy-5-methyl-3(2H)-furanone at 50 μg/ml, compared with 12.5 μg/ml) it was “the same MIC”.
